Key:
[1] = target: GSK3β (Homo sapiens, UniProt P49841); test: Inhibitory activity against GSK3β (33P-ATP phosphorylation of prephosphorylated GS1 peptide, two protocols); assay type: biochemical; details: first or second protocol not specified
Method: Inhibitory Activity of the Medicament of the Present Invention Against GSK3β
Two different protocols can be used.
In a first protocol: 7.5 μM of prephosphorylated GS1 peptide and 10 μM ATP (containing 300,000 cpm of ^33P-ATP) were incubated in 25 mM Tris-HCl, pH 7.5, 0.6 mM DTT, 6 mM MgCl2, 0.6 mM EGTA, 0.05 mg/ml BSA buffer for 1 hour at room temperature in the presence of GSK3beta (total reaction volume: 100 microliters).
In a second protocol: 4.1 μM of prephosphorylated GS1 peptide and 42 μM ATP (containing 260,000 cpm ^33P-ATP) were incubated in 80 mM Mes-NaOH, pH 6.5, 1 mM Mg acetate, 0.5 mM EGTA, 5 mM 2-mercaptoethanol, 0.02% Tween 20, 10% glycerol buffer for 2 hours at room temperature in the presence of GSK3beta.
Inhibitors were solubilized in DMSO (final solvent concentration in the reaction medium, 1%).
The reaction was stopped with 100 microliters of a solution made of 25 g polyphosphoric acid (85% P2O5), 126 ml 85% H3PO4, […] to 500 ml and then diluted to 1:100 before use. An aliquot of the reaction mixture was then transferred to Whatman P81 cation exchange filters and rinsed with the solution described above. Incorporated ^33P radioactivity was determined by liquid scintillation spectrometry.
The phosphorylated GS-1 peptide had the following sequence: NH2-[…](P)EDEE-COOH. SEQ ID NO: 1 (Woodgett, J. R. (1989) Analytical Biochemistry 180, 237-241.

Sequence of GSK3β (P49841 whole entry): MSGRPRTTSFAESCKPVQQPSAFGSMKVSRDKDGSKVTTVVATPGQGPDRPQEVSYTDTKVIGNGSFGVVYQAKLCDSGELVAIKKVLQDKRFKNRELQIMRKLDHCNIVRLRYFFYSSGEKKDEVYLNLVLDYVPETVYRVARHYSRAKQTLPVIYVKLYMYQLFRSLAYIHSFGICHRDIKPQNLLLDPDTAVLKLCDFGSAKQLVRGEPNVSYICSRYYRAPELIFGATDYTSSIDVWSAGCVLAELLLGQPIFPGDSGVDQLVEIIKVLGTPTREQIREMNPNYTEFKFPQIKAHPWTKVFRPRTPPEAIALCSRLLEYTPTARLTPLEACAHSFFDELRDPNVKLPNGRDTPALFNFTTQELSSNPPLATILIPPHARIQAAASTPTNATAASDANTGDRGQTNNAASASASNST

SMILES: Cn1c(CNC(=O)c2ccc3ncccc3n2)nc(-c2ccncn2)cc1=O [compound 4, [1,5]Naphthyridine-2-carboxylic acid (1-methyl-6-oxo-1,6-dihydro-[4,4]bipyrimidinyl-2-ylmethyl)-amide]
- IC50 [1]: 5 nM
- melting point: 317 to 319 °C

Source: patent US8598175B2, “Heteroarylamide pyrimidone derivatives” (Sanofi, priority 2007, dated 2013)
